In patent US20060252798A1, “Metal ion chelators and therapeutic use thereof” (priority 2003, published 2006):
Several values for one entry are separate records, joined by “and”; a condition that tells them apart may be missing. Identical values can stand only once.

Tests used:
[1] = system: SK-N-MC neuroepithelioma cells; assay: 3H-thymidine incorporation by SK-N-MC cells; type: cell-based, human; conditions: 20 h incubation then 2 h label; Mean ± SD, 4 experiments
Experimental: (§1) After a 20 h incubation of the SK-N-MC cells with a selection of analogues, ^3H-thymidine, ^3H-leucine, or ^3H-uridine (1 μCi/ml) was added for 2 h at 37° C. The cells were detached from the 96 well plate using 1 mM EDTA in Ca(II)/Mg(II)-free PBS and collected and washed using a cell harvester (Tomtec Harvester 96, Linbrook, Queensland, Australia). Radioactivity was measured on a P-scintillation counter (LKB Wallace, Turku, Finland).

[2] = system: SK-N-MC neuroepithelioma cells; assay: 3H-uridine incorporation by SK-N-MC cells; type: cell-based, human; conditions: 20 h incubation then 2 h label; Mean ± SD, 3 experiments
Experimental: as §1

[3] = system: iron regulatory proteins (IRPs); assay: IRP-RNA-binding activity, gel-retardation assay, SK-N-MC cells; type: cell-based, human; conditions: DFO 100 μM, FAC 100 μg/ml, other chelators 25 μM, 20 h (FIG. 8)
Experimental: The IRP-RNA-binding activity was then assessed by the gel-retardation assay. Aliquots of cell lysate containing 2 μg of protein were incubated with 0.1 ng (approximately 1×10^5 cpm) of ^32P-labelled riboprobe for 30 min at room temperature. Using this protocol the level of RNA added was saturating. Unprotected probe was degraded by incubation with 1 U of RNAse T1 for 10 min at room temperature. Heparin (5 mg/ml) was then added for another 10 min to exclude non-specific binding. The IRE-protein complexes were analyzed on 6% non-denaturing polyacrylamide gels. In parallel experiments, samples were treated with ferricyanide (FeCN, 5 mM) and 0.5% β-mercaptoethanol (β-ME), prior to addition of the IRE probe. This procedure results in the conversion of IRP1, whether spontaneously active or not, into an active IRE-binding form.^22

M109 lung carcinoma = assay: Inhibition of M109 lung carcinoma growth in vivo; set-up: species or system mouse; conditions: 0.4 mg/kg iv twice daily for 5 days, day 12
Experimental: Inhibition of M109 Lung Cancer Cell Growth by Iron Chelators In Vivo Female CD2F1 mice aged 8-10 weeks old were sc implanted with 1×10^5 M109 cells. The tumour cells were passaged in CD2F1 mice by preparing a brei from the tumour and injecting it sc.^20 Dp44mT was dissolved in 30% (v/v) propylene glycol in saline and injected iv 4 days after tumour engraftment, twice daily for 5 days followed by a “rest period” of 2 days when the animal was not injected. On the twelfth day after tumour implantation, mice were sacrificed using methoxyfluorane and cardiac puncture performed. Blood counts and erythrocyte indices were measured using a Sysmex Blood Counter (Prince of Wales Hospital, Sydney, Australia). Mouse body weight changes during the treatment period were recorded. The tumours were weighed and fixed for histological examination. The experimental groups consisted of eight mice for the control and each treatment (Table 5).
As a relevant positive control, animals were administered Triapine® at its MTD (6 mg/kg). The tumour weight was measured on the twelfth day after the tumour cell implantation.

[4] = Mouse weight loss and haematological indices in M109-bearing mice; type: in vivo; conditions: Mean ± SEM
Experimental: The tumour cells were passaged in CD2F1 mice by preparing a brei from the tumour and injecting it sc.^20 Dp44mT was dissolved in 30% (v/v) propylene glycol in saline and injected iv 4 days after tumour engraftment, twice daily for 5 days followed by a “rest period” of 2 days when the animal was not injected. On the twelfth day after tumour implantation, mice were sacrificed using methoxyfluorane and cardiac puncture performed. Blood counts and erythrocyte indices were measured using a Sysmex Blood Counter (Prince of Wales Hospital, Sydney, Australia). Mouse body weight changes during the treatment period were recorded. The tumours were weighed and fixed for histological examination. The experimental groups consisted of eight mice for the control and each treatment (Table 5).

active caspase-3 = assay: Protein level of active caspase-3 in M109 cells (western blotting); type: cell-based, mouse; conditions: 1 μM
Experimental: (§2) FIG. 14. Effect of Dp44mT (1 μM) on the (A,B) protein levels of active caspase-3, -8 and -9, and (C,D) the activity of caspase-3, -8 and -9 in cultured M109 cells in the absence (C) and presence (D) of cell-permeable caspase inhibitors. (A) Caspase-3, -8, and -9 levels after Dp44mT treatment at indicated times as detected by western blotting (upper panel). The anti-β-actin antibody was used to ensure equal protein loading (lower panel). (B) Densitometric analysis of the expression of caspase-3, -8, and -9 as a function of time normalized to β-actin (C) Caspase activity induced by Dp44mT (1 μM) at 0-48 h was expressed as a percentage of the 0 h time value. (D) Cell-permeable inhibitors of caspase-3, -8 or -9 at 1 μM prevented activation of these enzymes when incubated with Dp44mT (1 μM) for 48 h. Results are mean±SEM of three separate experiments.
(§3) Rabbit anti-active caspase-3 antibody, rabbit anti-active caspase-8 antibody and Annexin V fluorescein isothiocyanate (FITC) were from BD PharMingen (San Diego, Calif., USA). Anti-h-cytc MoAb was from R&D Systems Minneapolis, Minn., USA). Rabbit anti-active caspase-9 antibody, mouse anti-Bcl-2 and mouse anti-Bax antibodies were obtained from Santa Cruz (Santa Cruz, Calif., USA). Mouse anti-mouse β-actin antibody, horseradish peroxidase-conjugated antirabbit, and anti-mouse IgG were from Sigma Chemical Co. (St. Louis, Mo., USA).
(§4) To determine the role of caspase activation in Dp44mT-induced apoptosis in M109 cells, protein levels of active caspase-3, -8 and -9 (FIG. 14A,B) and their enzymatic activity (FIG. 14C,D) were examined.

active caspase-8 = assay: Protein level of active caspase-8 in M109 cells (western blotting); type: cell-based, mouse; conditions: 1 μM
Experimental: as §2, §3, §4

caspase-8 = assay: Caspase-8 activity in M109 cells (BD Apolert Caspase Assay Plate); type: cell-based, mouse; conditions: 1 μM
Experimental: (§5) Cultured M109 cells were treated with or without Dp44mT (1 μM) for 0-48 h at 37° C. Cells were lysed^27 and caspase activities were determined using the BD Apolert™ Caspase Assay Plate (BD Biosciences, San Diego, Calif., USA). Cell-permeable pan-caspase-3, -8, and -9 inhibitors (BD Biosciences) were included as inhibitory controls.

caspase-9 = assay: Caspase-9 activity in M109 cells (BD Apolert Caspase Assay Plate); type: cell-based, mouse; conditions: 1 μM
Experimental: as §5

Bax = Bax protein level in M109 cells; type: cell-based, mouse; conditions: 1 μM, 48 h
Experimental: Considering the roles of Bcl-2 and Bax in the mitochondrial pathway of apoptosis and their role in h-cytc release, ^8,11,12 the effect of Dp44mT (1 μM) on the protein levels of these molecules was assessed (FIG. 15B).

## CC(=O)N(O)CCCCCNC(=O)CCC(=O)N(O)CCCCCNC(=O)CCC(=O)N(O)CCCCCN [DFO, desferrioxamine]
[1]
  3H-Thymidine Incorporation: 29 ± 13 % Control and 29 + 13 % Control
[2]
  3H-Uridine Incorporation: 34 ± 5 % Control
[3]
  IRP-RNA binding activity: increase

## CN(C)C(=S)NN=C(c1ccccn1)c1ccccn1 [Dp44mT, di-2-pyridylketone 4,4-dimethyl-3-thiosemicarbazone]
M109 lung carcinoma
  tumour weight: 47 % of control
[4]; Dp44mT 0.3 mg/kg
  Body weight loss: 1.3 ± 0.3 g
  Haematocrit: 0.40 ± 0.03
  Haemoglobin: 13.3 ± 0.5 g/dL
  Platelets: 1019 ± 87 10^9/L
  RBC: 8.9 ± 0.4 10^12/L
  WBC: 4.2 ± 0.4 10^9/L
[4]; Dp44mT 0.4 mg/kg
  Body weight loss: 1.1 ± 0.2 g
  Haematocrit: 0.40 ± 0.01
  Haemoglobin: 11.8 ± 0.8 g/dL
  Platelets: 636 ± 88 10^9/L
  RBC: 8.0 ± 0.6 10^12/L
  WBC: 3.9 ± 0.6 10^9/L
Active caspase-3; 2 h
  caspase-3 protein level: 168 % of the control
Active caspase-3; 6 h
  caspase-3 protein level: 400 % of the control
Active caspase-3; 12 h
  caspase-3 protein level: 380 % of the control
Active caspase-3; 24 h
  caspase-3 protein level: about 4 fold that of control cells
Active caspase-3; 48 h
  caspase-3 protein level: 5.5 fold that of control cells
Active caspase-8; 2 h
  caspase-8 protein level: not increased
Active caspase-8; 6 h
  caspase-8 protein level: 150 % of the control
Active caspase-8; 12 h
  caspase-8 protein level: 400 % of the control
Active caspase-8; 24 h
  caspase-8 protein level: about 4 fold that of control cells
Active caspase-8; 48 h
  caspase-8 protein level: 3.4 fold that of control cells
caspase-8; 12 h
  caspase-8 activity: 299 % of the control
caspase-8; after 24 h
  caspase-8 activity (plateau): 400-600 % of the control
caspase-9; 12 h
  caspase-9 activity: 354 % of the control
caspase-9; after 24 h
  caspase-9 activity (plateau): 400-600 % of the control
Bax
  Bax expression: 500 % of that found at the 0 h time point
